Data taken from article PMC11591284, “Development and Optimization of a Redox Enzyme-Based Fluorescence Biosensor for the Identification of MsrB1 Inhibitors” (Antioxidants, 2024).

Experiments:
[1] = tested on: bone marrow-derived macrophages (BMDMs); assay: Cytokine mRNA expression in LPS-stimulated bone marrow-derived macrophages; format: cell-based, mouse; conditions: WT BMDMs, 1 μM inhibitor, LPS stimulation 24 h
Experimental: Bone marrow-derived macrophages (BMDMs) were generated by culturing bone marrow cells isolated from 8-week-old male C57BL/6 mice and MsrB1 knockout (KO) mice. The cells were cultured in high-glucose Dulbecco’s Modified Eagle Medium (DMEM) (Cytiva, Marlborough, MA, USA) supplemented with 10% fetal bovine serum (FBS), 100 U·mL^−1 penicillin-streptomycin (Gibco, Waltham, MA, USA), 20 mM HEPES (Gibco, Waltham, MA, USA), and 50 ng·mL^−1 recombinant mouse macrophage colony-stimulating factor (M-CSF) (BioLegend, San Diego, CA, USA). On day 3, 10 mL of fresh medium containing 50 ng·mL^−1 M-CSF was added to the cultures. On day 5, cells were treated with 1 μM MsrB1 inhibitors. On day 6, cells were treated with LPS (BioLegend, San Diego, CA, USA) for 24 h. Following treatment, cells were harvested, and total RNA was extracted using the High-Capacity cDNA Reverse Transcription Kit (Applied Biosystems, Foster City, CA, USA). Gene expression of IL-10 and IL-1rn mRNA was analyzed using the QuantStudio 3 Real-Time PCR system.

MsrB1 [2] = biological target: T1, MsrB1 (Mus musculus, UniProt Q9JLC3, U95C); assay: NADPH consumption assay of MsrB1 activity; format: biochemical; conditions: absorbance at 340 nm, 900 s vs 0 min; approximately 50 μM compound; DMSO control 0.638
T1 construct: made in house
T1 sequence (Q9JLC3 1-116 U95C): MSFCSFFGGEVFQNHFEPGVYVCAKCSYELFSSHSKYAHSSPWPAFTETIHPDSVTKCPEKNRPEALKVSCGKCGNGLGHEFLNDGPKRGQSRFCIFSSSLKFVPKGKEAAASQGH
Experimental: The activity of MsrB1 was assessed over a 900-s period in a 20 mM 4-(2-hydroxyethyl)-1-piperazineethanesulfonic acid (HEPES) buffer at pH 7.5 and 37 °C. The reaction mixture contained 500 μM N-AcMetO, 6 μM MsrB1, 2 μM mouse thioredoxin, 1 μM mouse thioredoxin reductase, 50 μM NADPH, and approximately 50 μM of a chemical compound. All components, except for the chemical compound, substrate (N-AcMetO), and NADPH, were pre-mixed. The chemical compound was added and incubated for 10 min. NADPH (50 μM) and 500 μM N-AcMetO were added before absorbance measurements began. The rate of NADPH oxidation was monitored by measuring absorbance at 340 nm every 30 s until the reaction was complete.

C57BL/6 mice = assay: TPA-induced acute skin inflammation (ear edema) model; format: in vivo, mouse; conditions: WT mice, 0.5 μM inhibitor in drinking water for 21 days, topical TPA
Experimental: Six-week-old male wild-type (WT) C57BL/6 mice and MsrB1 knockout (KO) mice were used in this experiment. The mice were provided with 50 mL water containing either 0.5 μM MsrB1 inhibitors dissolved in 1% DMSO or 1% DMSO alone (control) for 21 days. After this period, 50 μg·mL^−1 of TPA was applied to the right ear of each mouse, while the left ear received acetone as a control. Twenty hours after the initial TPA application, a second dose was administered. The mice were then sacrificed, and ear tissue samples were collected. The tissues were fixed in 10% formalin, dehydrated, embedded in paraffin, and sectioned into slices 3–5 μm thick. The sections were deparaffinized, rehydrated, and stained with hematoxylin and eosin (H&E) for histological examination under microscopy.

MsrB1 [3] = biological target: T1, MsrB1; assay: MsrB1 activity assay by HPLC with dabsylated MetO as substrate; format: biochemical; conditions: dabsyl-MetO to dabsyl-Met
Experimental: Methionine sulfoxide reductase B1 activity was determined using dabsylated MetO as substrate. […] The reaction was conducted for 30 min at 37 °C in a water bath and stopped by adding 200 μL of acetonitrile and vortexing. The reaction product, dabsyl-Met, was analyzed by HPLC using a ZORBAX RX-C18 column (5 μm; 4.6 × 150 mm). The column was pre-equilibrated with 0.14 M sodium acetate (pH 6.1), 0.5 mL/L triethylamine, and 30% acetonitrile. A total of 50 μL of the sample was loaded onto the column. The flow rate was 1 mL·min^−1, and a linear gradient elution mode was used (30% to 70%). Dabsyl-Met was detected via absorbance at 436 nm.

[4] = biological target: T2, Recombinant mouse MsrB1 protein (Mus musculus, UniProt Q9JLC3, U95C); assay: Microscale thermophoresis (MST) binding assay; conditions: read-out: KD ± SD
T2 construct: made in house; host or cells: E. coli (inferred; Rosetta2 (DE3) pLysS and pET-28a are described only for the RIYsense fusion)
T2 sequence (Q9JLC3 1-116 U95C): T1 sequence (Q9JLC3 1-116 U95C)
Experimental: MST analysis was performed using the Monolith NT.115 system (NanoTemper Technologies, München, Germany). Recombinant mouse MsrB1 protein was labeled with the Monolith His-Tag Labeling Kit RED-tris-NTA 2nd Generation (NanoTemper Technologies, Germany). The protein was prepared at a concentration of 200 nM, and the RED-tris-NTA 2nd Generation dye was diluted to 100 nM in the PBS-T (Tween 20) buffer. A mixture of 100 μL of 200 nM protein and 100 μL of 100 nM dye was incubated at RT for 30 min. After incubation, the sample was centrifuged at 13,000 rpm at 4 °C for 10 min, and the supernatant was transferred to a new tube, completing the protein labeling process and preparing the sample for analysis. Inhibitor compounds were serially diluted in DMSO, starting at a concentration of 1.25 mM (1:1 dilution, 16 points), and then each of the 16 dilutions was further diluted fivefold with PBS-T buffer. Next, 10 μL of the diluted compounds were mixed with 10 μL of the labeled protein, followed by resuspension and incubation for 10 min at RT. The samples were loaded into capillaries in serial order and analyzed using the Monolith NT.115 system at 60% LED power and 60% MST power. Changes in normalized fluorescence, dependent on the concentration of the compounds after 30 s of MST on time, were analyzed to determine Kd values.

NADPH (Abs15min/Abs0min) (MsrB1 [2])	Relative enzyme activity of MsrB1 (MsrB1 [3]; 10 µM compound)	Kd [4] [nM]	Structure (SMILES)	IL-1rn mRNA expression [1]	IL-10 mRNA expression [1]	Dermal area of TPA-treated auricle (H&E) compared to wild-type control mice (C57BL/6 mice)	Relative enzyme activity of MsrB1 (MsrB1 [3]; 100 µM and 500 µM compound)
0.942	no inhibition was observed	28.3 ± 1.21	CCc1ccc(C2=NN(c3ccc(S(N)(=O)=O)cc3)C(c3ccc(O)cc3)C2)cc1 (centres unmarked) [A06, 4-[5-(4-ethylphenyl)-3-(4-hydroxyphenyl)-3,4-dihydropyrazol-2-yl]benzenesulfonamide]	reduced	significantly reduced	substantially more enlarged	decreased in a concentration-dependent manner
0.918	no inhibition was observed	97.1 ± 1.6	CCc1ccc(-n2c3nc(=O)[nH]c(=O)c-3cc3c(Cl)cccc32)cc1 [B03, 6-chloro-10-(4-ethylphenyl)pyrimido[4,5-b]quinoline-2,4-dione]	reduced	significantly reduced	substantially more enlarged	decreased in a concentration-dependent manner
